The values below are quoted from earlier work in patent US8840932B2, “Antiseptic compositions and methods” (priority 2002, dated 2014).

For this data set the following is noted: 25° C.

For the compound `II` [elemental iodine, iodine], the solubility in water is reported as 0.03 wt-%.
